# Measured values published in patent US6506766B1 (Abbott Laboratories, priority 1998, dated 2003).
# Read-outs that look alike come from different tables or passages of the source.
# How the values were obtained:
# [1] = molecular target: T1, human progesterone receptor-A [PRA] isoform (Homo sapiens, UniProt P06401); experiment: Radioligand binding with human progesterone receptor cytosol ([3H]-progesterone competition)
# T1 construct: host or cells: insect SF21 cells (baculovirus)
# T1 sequence (P06401 1-769 isoform P06401-2): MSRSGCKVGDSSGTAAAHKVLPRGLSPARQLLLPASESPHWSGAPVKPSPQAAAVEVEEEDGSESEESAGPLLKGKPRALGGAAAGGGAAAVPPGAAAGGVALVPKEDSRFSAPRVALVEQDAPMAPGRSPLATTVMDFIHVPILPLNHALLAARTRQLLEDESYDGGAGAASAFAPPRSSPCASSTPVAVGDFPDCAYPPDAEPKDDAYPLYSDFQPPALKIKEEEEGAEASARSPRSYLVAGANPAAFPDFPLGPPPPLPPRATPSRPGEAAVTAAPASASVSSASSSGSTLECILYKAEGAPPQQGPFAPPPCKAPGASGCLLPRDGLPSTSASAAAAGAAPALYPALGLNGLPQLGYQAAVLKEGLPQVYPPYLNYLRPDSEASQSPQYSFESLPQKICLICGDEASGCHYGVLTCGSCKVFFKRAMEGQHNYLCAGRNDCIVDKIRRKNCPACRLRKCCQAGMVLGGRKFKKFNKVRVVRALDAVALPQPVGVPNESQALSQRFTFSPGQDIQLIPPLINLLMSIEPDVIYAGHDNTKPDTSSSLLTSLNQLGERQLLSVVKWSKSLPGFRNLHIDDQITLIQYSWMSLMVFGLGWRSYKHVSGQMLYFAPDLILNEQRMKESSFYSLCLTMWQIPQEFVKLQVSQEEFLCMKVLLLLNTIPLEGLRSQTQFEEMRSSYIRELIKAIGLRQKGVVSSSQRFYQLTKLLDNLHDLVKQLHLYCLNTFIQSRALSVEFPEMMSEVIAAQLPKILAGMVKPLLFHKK
# [2] = molecular target: T2, human glucocorticoid receptor-α [GRX] isoform (Homo sapiens, UniProt P04150); experiment: Radioligand binding with human glucocorticoid receptor cytosol ([3H]-dexamethasone competition)
# T2 construct: host or cells: insect SF21 cells (baculovirus)
# T2 sequence (P04150 1-777): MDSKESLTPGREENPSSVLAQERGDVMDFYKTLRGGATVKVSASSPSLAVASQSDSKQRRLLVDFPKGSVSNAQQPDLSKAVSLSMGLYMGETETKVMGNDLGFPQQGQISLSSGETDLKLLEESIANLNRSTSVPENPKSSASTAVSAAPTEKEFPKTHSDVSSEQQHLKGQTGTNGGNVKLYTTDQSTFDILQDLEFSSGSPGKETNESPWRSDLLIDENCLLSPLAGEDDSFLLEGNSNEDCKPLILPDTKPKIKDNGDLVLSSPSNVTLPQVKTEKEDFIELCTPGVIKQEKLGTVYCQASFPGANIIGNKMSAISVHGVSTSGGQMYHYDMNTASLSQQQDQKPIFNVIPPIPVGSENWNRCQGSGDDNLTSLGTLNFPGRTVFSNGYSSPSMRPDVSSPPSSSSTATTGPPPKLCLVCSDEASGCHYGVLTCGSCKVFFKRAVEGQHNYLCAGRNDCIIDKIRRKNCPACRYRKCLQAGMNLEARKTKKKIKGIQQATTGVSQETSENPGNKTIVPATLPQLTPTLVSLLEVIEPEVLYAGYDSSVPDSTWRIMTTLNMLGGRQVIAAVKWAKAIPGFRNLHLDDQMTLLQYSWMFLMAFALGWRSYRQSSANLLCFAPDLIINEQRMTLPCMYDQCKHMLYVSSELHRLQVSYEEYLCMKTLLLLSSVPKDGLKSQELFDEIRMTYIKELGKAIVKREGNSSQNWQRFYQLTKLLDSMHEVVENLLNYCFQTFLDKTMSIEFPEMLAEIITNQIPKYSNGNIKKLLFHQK
# [3] = PRA cytosol expressed in insect SF21 cells, [3H]Prog ~0.8 nM, 4° C. overnight, Ki by Cheng-Prusoff, KL ~4.5 nM, read-out: Ki (nM) PR
# [4] = GRX cytosol expressed in insect SF21 cells, [3H]-Dex ~0.9 nM, 4° C. overnight, Ki by Cheng-Prusoff, KL ~[…], read-out: Ki (nM) GR
SMILES,"Ki [1, 3] [nM]","Ki [2, 4] [nM]",Ki ([2]; read-out: Ki (nM) GR) [nM],Ki ([1]; Ki (nM) PR) [nM],Ki ([2]; Ki (nM) GR) [nM]
"COc1cccc2c1-c1ccc3c(c1C(c1ccc(O)cc1)O2)C(C)=CC(C)(C)N3 (stereo not drawn) [Example 95, 4-(2,5-Dihydro-10-methoxy-2,2,4-trimethyl-1H-[1]benzopyrano[3,4-f]quinolin-5-yl)phenol]",≥ 10000,31,,,
"COCc1cccc2c1-c1ccc3c(c1C(c1ccccc1)O2)C(C)=CC(C)(C)N3 (stereo not drawn) [Example 338, 2,5-Dihydro-10-(methoxymethyl)-5-phenyl-2,2,4-trimethyl-1H-[1]benzopyrano[3,4-f]quinoline]",≥ 10000,61,,,
"COc1cccc2c1-c1ccc3c(c1C(c1cccc(OC(=O)N(C)C)c1)O2)C(C)=CC(C)(C)N3 (stereo not drawn) [Example 15, [3-(2,5-Dihydro-10-methoxy-2,2,4-trimethyl-1H-[1]benzopyrano[3,4-f]quinolin-5-yl)phenyl]dimethylcarbamate]",,,,≥ 10000,2.5
"COc1cccc2c1-c1ccc3c(c1C(CCOC(=O)N(C)C)O2)C(C)=CC(C)(C)N3 (stereo not drawn) [Example 204, 2,5-Dihydro-10-methoxy-5-(2-(N,N-dimethylaminocarbonyloxy)ethyl)-2,2,4-trimethyl-1H-[1]benzopyrano[3,4-f]quinoline]",≥ 10000,74,,,
"C=C1CC(C)(C)Nc2ccc3c(c21)C(c1ccccc1)Oc1cccc(OC(F)(F)Br)c1-3 (stereo not drawn) [Example 347, 10-(Bromodifluoromethoxy)-5-phenyl-2,2-dimethyl-4-methylene-2,3,4,5-tetrahydro-1H-chromeno[3,4-f]quinoline]",≥ 10000,128,,,
"COc1cccc2c1-c1ccc3c(c1C(c1cccc(OCCN4CCCCC4)c1)O2)C(C)=CC(C)(C)N3 (stereo not drawn) [Example 89, 2,5-Dihydro-10-methoxy-2,2,4-trimethyl-5-[3-[2-(1-piperidinyl)ethoxy]pheny]-1H-[1]benzopyrano[3,4-f]quinoline]",≥ 10000,275,,,
"C=CCC1Oc2cccc(OC)c2-c2ccc3c(c21)C(C)=CC(C)(C)N3 (single isomer, unassigned; (+)) [Example 37, (+)-2,5-Dihydro-10-methoxy-2,2,4-trimethyl-5-(2-propenyl)-1H-[1]benzopyrano[3,4-f]quinoline]",≥ 10000,20,,,
"COc1cccc2c1-c1ccc3c(c1C(CC(=O)N(C)C)O2)C(C)=CC(C)(C)N3 (stereo not drawn) [Example 63, 2,5-Dihydro-10-methoxy-2,2,4,N,N-pentamethyl-1H-[1]benzopyrano[3,4-f]quinoline-5-acetamide]",≥ 10000,511,,,
"C=CCC1Oc2ccc(OC(C)=O)c(OC)c2-c2ccc3c(c21)C(C)=CC(C)(C)N3 (stereo not drawn) [Example 295, 2,5-Dihydro-9-acetoxy-10-methoxy-2,2,4-trimethyl-5-(2-propenyl)-1H-[1]benzopyrano[3,4-f]quinoline]",59.3,0.67,,,
COc1c(O)ccc2c1-c1ccc3c(c1C(c1ccccc1OC(=O)N(C)C)O2)C(C)=CC(C)(C)N3 (stereo not drawn) [Example 402],,,,10100,3.3
COCOc1cccc(C2Oc3cccc(OC)c3-c3ccc4c(c32)C(C)=CC(C)(C)N4)c1 (stereo not drawn) [Example 99],≥ 10000,3.6,,,

# The next lines start with results.
"Ki [1, 3] [nM]","Ki [2, 4] [nM]",Ki ([2]; read-out: Ki (nM) GR) [nM],SMILES,Ki ([1]; Ki (nM) PR) [nM],Ki ([2]; Ki (nM) GR) [nM]
6920,2,,"C=CCC1Oc2c(C)ccc(OC)c2-c2ccc3c(c21)C(C)=CC(C)(C)N3 (stereo not drawn) [Example 305, 10-Methoxy-7-methyl-5-(3-propenyl)-2,2,4-trimethyl-1H-2,5-dihydro-[1]benzopyrano[3,4-f]quinoline]",,
≥ 10000,60.5,,"CCOc1cccc2c1-c1ccc3c(c1C(c1ccccc1)O2)C(C)=CC(C)(C)N3 (stereo not drawn) [Example 9, 10-Ethoxy-2,5-dihydro-2,2,4-trimethyl-5-phenyl-1H-[1]benzopyrano[3,4-f]quinoline]",,
734,120,,"CC1=CC(C)(C)Nc2ccc3c(c21)C(c1cc(F)c(F)c(F)c1)Oc1ccc(O)c(Cl)c1-3 (stereo not drawn) [Example 435, 2,5-Dihydro-9-hydroxy-10-chloro-2,2,4-trimethyl-5-(3,4,5-trifluorophenyl)-1H-[1]benzopyrano[3,4-f]quinoline]",,
1560,9.5,,"CC1=CC(C)(C)Nc2ccc3c(c21)C(c1ccccc1)Oc1cccc(CO)c1-3 (stereo not drawn) [Example 336, 2,5-Dihydro-10-(hydroxymethyl)-5-phenyl-2,2,4-trimethyl-1H-[1]benzopyrano[3,4-f]quinoline]",,
7.6,,0.58,"C=CCC1Oc2ccc(O)c(Cl)c2-c2ccc3c(c21)C(C)=CC(C)(C)N3 (stereo not drawn) [Example 216, 10-Chloro-9-hydroxy-5-(3-propenyl)-2,2,4-trimethyl-1H-2,5-dihydro-[1]benzopyrano[3,4-f]quinoline]",,
879,10.7,,"COc1c(O)ccc2c1-c1ccc3c(c1C(c1ccc(Cl)c(C(F)(F)F)c1)O2)C(C)=CC(C)(C)N3 (stereo not drawn) [Example 258, 2,5-Dihydro-9-hydroxy-10-methoxy-2,2,4-trimethyl-5-(3-trifluoromethyl-4-chlorophenyl)-1H-[1]benzopyrano[3,4-f]quinoline]",,
4080,0.86,,"COC(=O)C1=CC(C2Oc3ccc(O)c(OC)c3-c3ccc4c(c32)C(C)=CC(C)(C)N4)CCC1 (single isomer, unassigned) [Example 288]",,
3500,346,,COc1c(O)ccc2c1-c1ccc3c(c1[C@@H]([C@H]1C=CCC1)O2)C(C)=CC(C)(C)N3 [Example 287],,
260,0.73,,"C=C(C)CC1Oc2ccc(O)c(OC)c2-c2ccc3c(c21)C(C)=CC(C)(C)N3 (stereo not drawn) [Example 289, 2,5-Dihydro-9-hydroxy-10-methoxy-2,2,4-trimethyl-5-(2-methyl-3-propenyl)-1H-[1]benzopyrano[3,4-f]quinoline]",,
297,2.6,,"CC1=CC(C)(C)Nc2ccc3c(c21)C(c1cc(Cl)cc(Cl)c1)Oc1ccc(O)c(Cl)c1-3 (stereo not drawn) [Example 223, 10-Chloro-9-hydroxy-5-(3,5-dichlorophenyl)-2,2,4-trimethyl-1H-2,5-dihydro-[1]benzopyrano[3,4-f]quinoline]",,
2.1,1.4,,CC1=C[C@H]([C@@H]2Oc3ccc(O)c(Cl)c3-c3ccc4c(c32)C(C)=CC(C)(C)N4)CCC1 [Example 418],,
321,3.8,,"C#Cc1cccc2c1-c1ccc3c(c1C(CC=C)O2)C(C)=CC(C)(C)N3 (stereo not drawn) [Example 6, 10-Ethynyl-2,5-dihydro-2,2,4-trimethyl-5-(2-propenyl)-1H-[1]benzopyrano[3,4-f]quinoline]",,
681,34.5,,"C=CCC1Oc2c(C=C)ccc(OC)c2-c2ccc3c(c21)C(C)=CC(C)(C)N3 (stereo not drawn) [Example 304, 10-Methoxy-7-(2-ethenyl)-5-(3-propenyl)-2,2,4-trimethyl-1H-2,5-dihydro-[1]benzopyrano[3,4-f]quinoline]",,
27.5,0.58,,"C=C=CC1Oc2ccc(O)c(OC)c2-c2ccc3c(c21)C(C)=CC(C)(C)N3 (stereo not drawn) [Example 389, 2,5-Dihydro-9-hydroxy-10-methoxy-2,2,4-trimethyl-5-allenyl-1H-[1]benzopyrano[3,4-f]quinoline]",,
3420,0.53,,COc1c(O)ccc2c1-c1ccc3c(c1[C@H]([C@H]1C=C(CO)CCC1)O2)C(C)=CC(C)(C)N3 (relative stereo) [Example 242],,
1190,2.9,,"C/C=C/CC1Oc2cccc(OC)c2-c2ccc3c(c21)C(C)=CC(C)(C)N3 (stereo not drawn) [Example 191, trans 2,5-Dihydro-10-methoxy-5-(2-butenyl)-2,2,4-trimethyl-1H-[1]benzopyrano[3,4-f]quinoline]",,
